Measurements: patent US20250244419A1, “INFUSION DEVICE FOR THE PREPARATION AND DELIVERY OF MRI PROBES” (The United States of America, as represented by the …, priority 2022, published 2025)

Assay: Relaxation dynamics of hyperpolarized [1-13C]pyruvate (build-up time Tb, T1)
Assay type: physicochemical
Excerpt: In addition, the relaxation dynamics of the [1-^13C]pyruvate were also studied.
In addition, relaxation dynamics at earth field and 1.8 T are about the same as a non-fluorinated SABRE catalyst T1=28.9±1.6 s and 66.5±7 s, respectively.
In addition, relaxation dynamics at earth field and 1.8 T are about the same as a non-fluorinated SABRE catalyst T1=9.0±1.9 s and 16.0±1.4 s, respectively.

With `C[13C](=O)C(=O)O` [[1-^13C]pyruvate, Sodium [1-^13C]-pyruvate] the “total P13C (bound+free) build-up time Tb” value (NFBME / deuterated methanol mixture, catalyst of Example 4) was 3.0 ± 0.8 s and the “total P13C (bound+free) build-up time Tb” value (methanol, catalyst of Example 4, DMSO co-ligand) was 6.6 ± 3.0 s.
